From patent publication US20240390301A1, “COMBINATIONS OF PERIPHERAL 5-HT2A RECEPTOR ANTAGONISTS AND CENTRAL 5-HT2A RECEPTOR AGONISTS” (priority 2021, published 2024)
Several values for one entry are separate records, joined by “and”; a condition that tells them apart may be missing. Identical values can stand only once. Like-named read-outs stand apart in the source and are kept apart here.

Legend:
5-HT2C receptor = biological target: T1, 5-HT2C receptor (Homo sapiens, UniProt P28335); test: biochemical; format: binding; details: HEK293 stable cell line, 2 nM [3H]mesulergine, 1 h, 25° C.; for Ki: read-out: 5-HT2C Ki (nM) ([3H]mesulergine)
T1 construct: WuXi AppTec (Hong Kong) Limited (contract laboratory that ran the assay)
T1 sequence (P28335 33-458): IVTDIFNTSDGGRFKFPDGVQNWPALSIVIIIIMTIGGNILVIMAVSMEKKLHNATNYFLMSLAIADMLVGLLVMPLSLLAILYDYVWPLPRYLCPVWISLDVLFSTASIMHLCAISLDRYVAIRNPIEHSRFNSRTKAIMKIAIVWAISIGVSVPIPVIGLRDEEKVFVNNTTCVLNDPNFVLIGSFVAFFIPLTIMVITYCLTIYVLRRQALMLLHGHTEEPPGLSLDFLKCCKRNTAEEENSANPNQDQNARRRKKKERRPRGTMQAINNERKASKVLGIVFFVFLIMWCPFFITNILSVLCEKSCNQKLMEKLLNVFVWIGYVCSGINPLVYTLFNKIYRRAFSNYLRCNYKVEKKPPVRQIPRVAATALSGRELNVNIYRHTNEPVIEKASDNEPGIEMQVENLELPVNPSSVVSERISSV

[1] = Metabolic stability in human liver microsomes; format: in vitro ADME; details: for half-life at 1 μM / microsomal CLint at 1 μM: both sexes, human, microsomes, pH 7.4
Method: HLM Stability. Pooled HLM from adult male and female donors (Corning 452117) were used. Microsomal incubations were carried out in multi-well plates. Liver microsomal incubation medium consisted of PBS (100 mM, pH 7.4), MgCl2 (1 mM), and NADPH (1 mM), with 0.50 mg of liver microsomal protein per mL. Control incubations were performed by replacing the NADPH-cofactor system with PBS. Test compounds (1 μM, final solvent concentration 1.0%) were incubated with microsomes at 37° C. with constant shaking. Six time points over 60 minutes were analyzed, with 60 μL aliquots of the reaction mixture being drawn at each time point. The reaction aliquots were stopped by adding 180 μL of cold (4° C.) acetonitrile containing 200 ng/mL tolbutamide and 200 ng/ml labetalol as internal standards (IS), followed by shaking for 10 minutes, and then protein sedimentation by centrifugation at 4,000 rpm for 20 minutes at 4° C. Supernatant samples (80 μL) were diluted with water (240 μL) and analyzed for parent compound remaining using a fit-for-purpose liquid chromatography-tandem mass spectrometry (LC-MS/MS) method.
Data Analysis. The elimination constant (kel), half-life (t1/2), and intrinsic clearance (CLint) were determined in a plot of […] versus time, using linear regression analysis.

in vivo [2] = test: in vivo
Method: The pharmacokinetics of peripheral 5-HT2A antagonists were studied in the plasma (Tables 11 and 12) and brains (Table 13 and 14) of rats after subcutaneous (SC) dosing. The results were used to interpret the in vivo pharmacological results.
Animals. Male Sprague Dawley rats, aged 8-12 weeks. were used in these studies. Four rats were housed in each cage. […] Temperature and humidity were recorded by an auto-controlled data logger system. All animals were provided laboratory rodent diet and were fasted for 4 h pre-dose and 2 h post-dose. Reverse osmosis water treated with ultraviolet light was provided ad libitum. Animals were randomly assigned to treatment groups.
Drugs and Drug Administration. Test compounds were prepared as described above or commercially obtained. They were administered subcutaneously (SC) at a dose of 1 or 10 mg/kg (as indicated, calculated based on the free base) and at a volume of 5 mL/kg body weight.
Sample Collection and Bioanalysis. […] SC. […] For both studies, immediately after blood collection, plasma was harvested by centrifugation at 4,000 rpm for 10 min at 4° C. and samples were stored at −70±10° C. until bioanalysis. Following blood collection, animals were immediately sacrificed, the abdominal vena-cava was cut open, and the whole body was perfused from the heart using 10 mL of normal saline, and brain samples were collected from all animals. After isolation, brain samples were rinsed three times in ice-cold normal saline (for 5-10 seconds/rinse using ˜5-10 mL normal saline in disposable petri dish for each rinse) and dried on blotting paper. Brain samples were homogenized using ice-cold phosphate-buffered saline (pH 7.4). Total homogenate volume was three times the tissue weight. All homogenates were stored at −70±10° C. until bioanalysis. For bioanalysis, 25 μL aliquots of plasma/brain study samples or spiked plasma/brain calibration standards were added to individual pre-labeled micro-centrifuge tubes followed by 100 μL of an internal standard solution (glipizide, 500 ng/ml in acetonitrile) except for blanks, where 100 μL of acetonitrile was added. Samples were vortexed for 5 minutes and then centrifuged for 10 minutes at 4,000 rpm at 4° C. Following centrifugation, 100 μL of each clear supernatant was transferred to a 96-well plate and analyzed with a fit-for-purpose LC-MS/MS method, with authentic samples of each analyte used for calibration and identification.

in vivo [3] = format: in vivo, rat; details: for Peripheral restriction / brain penetration: from free brain:free plasma ratios; for Kp at 0.167 h / Kp at 0.5 h: male, Sprague Dawley, rat, in vivo; for Kp at 0.167 h: read-out: Free Brain:Free Plasma (0.167 h); for Kp at 0.5 h: read-out: Free Brain:Free Plasma (0.5 h)
Method: The ratio of free brain concentration to free plasma concentration was calculated at 0.167 h and 0.5 h post administration for each compound using the data presented in the above examples and the following formula.
A smaller value for the free brain: free plasma ratio indicates greater peripheral restriction and therefore, better suitability for the methods of the present disclosure.

[4] = HLM, 1 μM, 0.50 mg protein per mL, NADPH
[5] = male, Sprague Dawley, rat, in vivo, sc, 1 mg/kg
[6] = male, Sprague Dawley, rat, in vivo, sc, 10 mg/kg
[7] = calculated using 10 mg/kg PK data

Row | SMILES | 5-HT2C Ki (nM) ([3H]mesulergine) (5-HT2C receptor) | Ki (5-HT2C receptor) | Metabolic stability in HLM [1] | half-life at 1 μM [1, 4] | microsomal CLint at 1 μM [1, 4] | Cmax (in vivo [2]; [5]) | concentration at 0.167 h (in vivo [2]; [5]) | concentration at 0.5 h (in vivo [2]; [5]) | half-life (in vivo [2]; [5]) | Peripheral restriction / brain penetration (in vivo [3]) | Kp at 0.167 h (in vivo [3]; calculated using 1 mg/kg data) | Kp at 0.5 h (in vivo [3]; calculated using 1 mg/kg data) | concentration at 0.167 h (in vivo [2]; [6]) | concentration at 0.5 h (in vivo [2]; [6]) | Kp at 0.167 h (in vivo [3]; [7]) | Kp at 0.5 h (in vivo [3]; [7]) | also measured
1 | CC(CNC(=N)CNc1ccccc1)Oc1cccc(Cl)c1.O=CO (stereo not drawn) [BW501C67, N-(2-(3-chlorophenoxy)propyl)-2-(phenylamino)acetimidamide formate] | high affinity | 1.34 nM | poor metabolic stability | 7.2 min | 192 µL/min/mg | 91.4 ng/mL and 32.3 ng/g | 91.4 ng/mL and 10.4 ng/g | 73.8 ng/mL and 13.6 ng/g | 187 min | by far the most peripherally restricted compound | 0.0032 | 0.0052 |  |  |  |  | AUC(0-t) (in vivo [2]; male, Sprague Dawley, rat, in vivo, sc, 1 mg/kg, AUC0-last (h*ng/mL), brain, 1 mg/kg SC): 436 ng·h/mL; AUC(0-t) (in vivo [2]; male, Sprague Dawley, rat, in vivo, sc, 1 mg/kg, AUC0-last (h*ng/mL), plasma, 1 mg/kg SC): 277 ng·h/mL; Tmax (in vivo [2]; male, Sprague Dawley, rat, in vivo, sc, 1 mg/kg, Tmax (h), brain, 1 mg/kg SC): 240 min; Tmax (in vivo [2]; male, Sprague Dawley, rat, in vivo, sc, 1 mg/kg, Tmax (h), plasma, 1 mg/kg SC): 10.2 min
2 | COc1cccc(C(=O)Nc2ccc(OCCN3CCOCC3)c(-c3ccnn3C)c2)c1 [temanogrel] |  |  |  |  |  |  |  |  |  | substantial brain penetration |  |  | 411 ng/mL and 113 ng/g | 518 ng/mL and 148 ng/g | 0.33 | 0.34 | 
3 | CC(C)COc1ccc(CNC(=O)N(Cc2ccc(F)cc2)C2CCN(C(=O)CC[C@H](N)C(=O)O)CC2)cc1 [Compound 14a, (S)-2-amino-5-(4-(1-(4-fluorobenzyl)-3-(4-isobutoxybenzyl)ureido)piperidin-1-yl)-5-oxopentanoic acid] |  | 106 nM | highly stable | > 145 min | < 9.6 µL/min/mg | 271 ng/mL | 265 ng/mL | 271 ng/mL | 51 min | good peripheral restriction | 0 | 0 | 966 ng/mL and 35.6 ng/g | 1530 ng/mL and 40.7 ng/g | 0.048 | 0.035 | AUC(0-t) (in vivo [2]; [5]): 434 ng·h/mL; Tmax (in vivo [2]; [5]): 30 min
4 | COc1cccc(CCc2ccccc2OCC(CN(C)C)OC(=O)CCC(=O)O)c1 (stereo not drawn) [sarpogrelate] |  |  |  |  |  |  |  |  |  | substantial brain penetration |  |  | 2130 ng/mL and 28.9 ng/g | 2990 ng/mL and 31.8 ng/g | 0.37 | 0.29 | 
5 | COc1cccc(OC(C)CNC(=N)Cc2cccc(C)c2)c1.O=C(O)C(F)(F)F (stereo not drawn) [xylamidine, N-(2-(3-methoxyphenoxy)propyl)-2-(m-tolyl) acetimidamide trifluoroacetate] | high affinity | 1.45 nM | poor metabolic stability |  |  |  |  |  |  |  |  |  |  |  |  |  | Clint [1, 4]: 448.6 µL/min/mg; t1/2 [1, 4]: 3.1 min; Tmax (in vivo [2]; brain, 1 mg/kg SC): 60 min; t1/2 (in vivo [2]; brain, 1 mg/kg SC): 289 min; 0.167 h (ng/g) brain concentration (in vivo [2]; brain, 1 mg/kg SC, 0.167 h): 14.4 ng/g; 0.5 h (ng/g) brain concentration (in vivo [2]; brain, 1 mg/kg SC, 0.5 h): 35.4 ng/g; Mean brain concentration 0.167 h (in vivo [2]; brain, 10 mg/kg SC, 0.167 h): 100.8 ng/g; Mean brain concentration 0.5 h (in vivo [2]; brain, 10 mg/kg SC, 0.5 h): 60.7 ng/g; AUC0-last (in vivo [2]; plasma, 1 mg/kg SC): 343.6 ng·h/mL; Cmax (in vivo [2]; plasma, 1 mg/kg SC): 155.4 ng/mL; Tmax (in vivo [2]; plasma, 1 mg/kg SC): 10.2 min; t1/2 (in vivo [2]; plasma, 1 mg/kg SC): 103 min; 0.167 h (ng/mL) plasma concentration (in vivo [2]; plasma, 1 mg/kg SC, 0.167 h): 155.4 ng/mL; 0.5 h (ng/mL) plasma concentration (in vivo [2]; plasma, 1 mg/kg SC, 0.5 h): 133.4 ng/mL; Mean plasma concentration 0.167 h (in vivo [2]; plasma, 10 mg/kg SC, 0.167 h): 1099.2 ng/mL; Mean plasma concentration 0.5 h (in vivo [2]; plasma, 10 mg/kg SC, 0.5 h): 670.0 ng/mL; Free Brain:Free Plasma (0.167 h) (in vivo [3]; calculated using 1 mg/kg data): 0.018; Free Brain:Free Plasma (0.5 h) (in vivo [3]; calculated using 1 mg/kg data): 0.052; Free Brain:Free Plasma (0.167 h) (in vivo [3]; [7]): 0.018; Free Brain:Free Plasma (0.5 h) (in vivo [3]; [7]): 0.018
